Data reported in PubChem BioAssay AID1996.
In brackets after ≈: the same amount, converted by molar mass.

Conditions: buffer; pH 7.4; 200.0 µM

SMILES | solubility kinetic
O=C(Nc1cc(S(=O)(=O)N2CCOCC2)ccc1N1CCOCC1)c1ccccc1[N+](=O)[O-] | > 71.5 µg/mL
O=C(NCC1CCCCC1)c1cc([N+](=O)[O-])ccc1Cl | 8 µg/mL (≈ 27 µM)
CC(=O)N1c2ccccc2Sc2ccccc21 | 26.4 µg/mL (≈ 109 µM)
O=C(/C=C/c1ccc2c(c1)OCO2)N1CCCCC1 | > 38.9 µg/mL
CCN(CC)c1ccc(C=Nc2ccc(C)cc2C)c(O)c1 | 6.4 µg/mL (≈ 21.6 µM)
COc1cccc(-n2cc(-c3ccc(F)cc3)[nH]c2=S)c1 | 2.4 µg/mL (≈ 7.99 µM)
C(=N\N1CCN(c2ccccn2)CC1)/c1ccccn1 | > 40.1 µg/mL
O=C(COC(=O)[C@@H]1CCCN1C(=O)c1cccs1)Nc1ccc(Br)cc1 | 2.4 µg/mL (≈ 5.49 µM)
NC(=O)c1cc2cc(Cc3ccccc3Cl)ccc2oc1=O | 1.2 µg/mL (≈ 3.82 µM)
COc1ccc(NC(=O)c2cc(F)cc(F)c2)cc1S(=O)(=O)N1CCCCC1 | 5.1 µg/mL (≈ 12.4 µM)
Cc1cccc(NC(=O)C(C)Sc2nc3nc(C)cc(C)n3n2)c1 (stereo unspecified) | > 51.2 µg/mL
Cc1ccc(NC(=O)Cc2ccsc2)cc1Cl | 4.6 µg/mL (≈ 17.3 µM)
CN(C(=O)CN1C(=O)c2ccccc2S1(=O)=O)C1CCCCC1 | > 50.5 µg/mL
O=C(c1ccc(S(=O)(=O)Nc2ccccc2)cc1)N1CCC1 | > 47.5 µg/mL
Cc1ccc(NC(=O)Nc2cccnc2)cc1 | > 34.1 µg/mL
CCC(=Nc1ccccc1N)c1c(O)[nH]c(=O)[nH]c1=O | 5.6 µg/mL (≈ 20.4 µM)
Cc1cc(NC(=O)c2cc(S(=O)(=O)N3CCCCC3)ccc2C)no1 | 14.2 µg/mL (≈ 39.1 µM)
CC(=O)c1cc(C(C)=O)c(C)[n+](C)c1C.[O-][Cl+3]([O-])([O-])[O-] | 41.5 µg/mL
CC1(C(=O)NC2CCCCC2)CCC(=O)N1Cc1ccc2c(c1)OCO2 (stereo unspecified) | 44.4 µg/mL (≈ 124 µM)
COc1ccccc1NC(=O)Nc1cccc(NC(C)=O)c1 | 34.2 µg/mL (≈ 114 µM)
O=C(Nc1ccccc1)c1cc2ccc3ccccc3c2s1 | < 0.6 µg/mL

SMILES | solubility kinetic
O=C(CN1CCOCC1)Nc1cccc([N+](=O)[O-])c1 | 36.3 µg/mL (≈ 137 µM)
Cc1ccc(CNC(=O)Cc2noc3ccccc23)cc1 | 2.3 µg/mL (≈ 8.2 µM)
COc1ccccc1N1C(=O)CC(=O)NC1=O | > 35.1 µg/mL
O=C1Nc2ccc([N+](=O)[O-])cc2OC1CCN1CCCC1 (stereo unspecified) | > 43.7 µg/mL
CC(=O)c1c(C)[nH]c(C(=O)COC(=O)c2cc(C)oc2C)c1C | 13.1 µg/mL (≈ 41.3 µM)
Cc1cccn2cc(CCNC(=O)Cc3cccs3)nc12 | > 44.9 µg/mL
O=S(=O)(c1ccccc1)c1nc(-c2ccccc2)oc1N1CCCC1 | 1.3 µg/mL (≈ 3.67 µM)
Cc1ccccc1C(=O)Nc1ccc(S(=O)(=O)Nc2onc(C)c2C)cc1 | 50.5 µg/mL (≈ 131 µM)
O=C(COc1ccc(Cl)cc1)NC1CC1 | > 33.9 µg/mL
OCCNC(=S)Nc1ccc2c(c1)OCCO2 | 37 µg/mL (≈ 145 µM)
Cc1nc(SCC(=O)N2CCOCC2)c2c(C)c(C)sc2n1 | 49.1 µg/mL (≈ 145 µM)
C=CCc1c(Cl)nc(C)nc1NCc1ccccc1 | 5.8 µg/mL (≈ 21.2 µM)
O=C(CCc1c[nH]c2ccccc12)NCCc1ccc2c(c1)OCCO2 | 44.4 µg/mL (≈ 127 µM)
COc1ccc2cc(C3(C)NC(=O)N(CC(=O)N4CCCCC4)C3=O)ccc2c1 (stereo unspecified) | 14.6 µg/mL (≈ 36.9 µM)
CCC(C)c1ccccc1NS(=O)(=O)c1cnn(CC)c1 (stereo unspecified) | > 46.1 µg/mL
Brc1cccc(CNCC2CCCO2)c1 (stereo unspecified) | > 40.5 µg/mL
C=CCNC(=O)c1cc2c(=O)n3ccccc3nc2s1 | 10.4 µg/mL (≈ 36.4 µM)
Cc1ccoc1C(=O)N1CCN(C(=O)c2occc2C)CC1 | > 45.3 µg/mL
N#Cc1cncc(C#Cc2ccccc2)c1 | 5.6 µg/mL (≈ 27.4 µM)
CCOC(=O)CC(c1ccc([N+](=O)[O-])cc1)n1c(C)ccc1C (stereo unspecified) | 32.9 µg/mL (≈ 104 µM)
O=C(CSc1ccccc1)Nc1ccc2sccc2c1 | 0.7 µg/mL (≈ 2.34 µM)

SMILES | solubility kinetic
O=C(Nc1ccccc1C(F)(F)F)c1cnccn1 | 21.5 µg/mL (≈ 80.5 µM)
CC1(C)CC2(CCO1)C(Nc1ccccc1)=NC(=S)N2CC(N)=O (stereo unspecified) | > 52 µg/mL
CC(C(=O)O)c1ccc(N2Cc3ccccc3C2=O)cc1 (stereo unspecified) | > 42.2 µg/mL
CC1(c2ccc3ccccc3c2)NC(=O)N(CC(=O)O)C1=O (stereo unspecified) | > 44.7 µg/mL
CC(C)(C)c1ccc(C2=NC(=O)C(CC(=O)O)S2)cc1 (stereo unspecified) | 37.4 µg/mL (≈ 128 µM)
CC1(C)Cc2ccccc2C(C(Cc2ccccc2)C(N)=O)=N1 (stereo unspecified) | 41.8 µg/mL (≈ 136 µM)
Cc1ccc2c(c1)c1c3n2CCN(CC(N)=O)C3CCC1 (stereo unspecified) | 1.7 µg/mL (≈ 6 µM)
Cc1ccc(C(=O)Nc2ncccc2C)o1 | > 32.4 µg/mL
CC(=O)c1ccc(N2CCN(C(=O)Nc3cccc(F)c3)CC2)cc1 | 4.8 µg/mL (≈ 14.1 µM)
CC(=O)N1CCN(C(=O)c2cc3ccccc3o2)CC1 | > 40.8 µg/mL
Cc1cc(=O)[nH]c(SCC(=O)Nc2ccc(F)c([N+](=O)[O-])c2)n1 | > 50.7 µg/mL
COc1cc2c(cc1OC)C(c1cccc(F)c1)CC(=O)N2 (stereo unspecified) | > 45.2 µg/mL
CCOc1ccc(C(=O)Nc2ccccc2OC(F)F)cc1 | 6.1 µg/mL (≈ 19.9 µM)
CCC1C(=NO)C(CC)C(c2ccccc2)NC1c1ccccc1 (stereo unspecified) | 0.9 µg/mL (≈ 2.79 µM)
O=C(Nc1ccccc1C(=O)Nc1ccccn1)c1cc(F)c(F)cc1Cl | < 0.3 µg/mL
COc1ccccc1C1CCN(C(=O)c2ccc(Cl)cc2)CC1 | 17 µg/mL (≈ 51.5 µM)
O=C(CN1CCOCC1)Nc1ccc([N+](=O)[O-])cc1 | 39.3 µg/mL (≈ 148 µM)
CCOC(=O)c1c(C)noc1-c1ccco1 | 7.5 µg/mL (≈ 33.9 µM)
Nc1ccc(Oc2ccc(F)cc2)nc1 | 27.6 µg/mL (≈ 135 µM)
